Our source for the fold induction and lipid droplet content values is patent US20220273748A1, “PLANT FERMENT AND WEIGHT LOSS METHOD FOR USING THE SAME” (TCI CO., LTD., priority 2021, published 2022).

Read-outs that look alike come from different tables or passages of the source.

One test relates to PYY gene. The test is described as follows: Expression level of PYY gene in NCI-H716 cells (qRT-PCR). The test is classed as cell-based. The note with it: Homo sapiens, read-out: expression level of the PYY gene relative to the blank group. As for the experimental part: Herein, the expression level of the gene (Gene ID: 5697) of the peptide tyrosine-tyrosine (PPY) protein in human colorectal adenocarcinoma NCI-H716 cells (purchased from the Bioresource Collection and Research Center (BCRC), number 60517; hereinafter referred to as NCI-H716 cells) treated with each of the compounds TCI-LTF-01, TCI-LTF-02, TCI-LTF-04, TCI-LTF-08, TCI-LTF-09, TCI-LTF-10, TCI-LTF-11, TCI-LTF-12, and TCI-LTF-14 that were identified in Example 7 was determined by using the RNA extraction kit, SuperScript® III Reverse Transcriptase, KAPA SYBR®FAST qPCR reagent kit, and quantitative PCR machine.
A cell culture medium used is a solution containing 20% of fetal bovine serum (FBS, purchased from Gibco, number 10438-026, US), 1% of antibiotic-antimycotic (purchased from Gibco, number 15240-062), 10 mM of HEPES buffer (purchased from Gibco, number 15630080), and 1 mM of sodium pyruvate (purchased from Gibco, number 11360070). The compounds TCI-LTF-01, TCI-LTF-02, TCI-LTF-04, TCI-LTF-08, TCI-LTF-09, TCI-LTF-10, TCI-LTF-11, TCI-LTF-12, and TCI-LTF-14 each was formulated into 100 mM of stock sample with the DMSO solvent.
First, the NCI-H716 cells were inoculated into a 6-well culture plate containing 2 mL of culture medium in a density of 1×10^5 cells per well, and cultured at 37° C. for 24 h. Next, the NCI-H716 cells were divided into a blank group and 9 experimental groups. Then, the cell culture medium in each group was replaced with 2 mL of experimental culture medium per well, and then cultured at 37° C. for 12 h. The experimental culture medium in the blank group was a cell culture medium with no treatment (that is, no additional compounds were added into the cell culture medium). The experimental culture medium in each of the 9 experimental groups was a cell culture medium containing […] of corresponding compound identified in Example 7, and the 9 compounds were: syringin (TCI-LTF-01), 1,5-di-o-caffroylquinic acid (TCI-LTF-02), luteolin (TCI-LTF-04), chlorogenic acid (TCI-LTF-08), dihydrocaffeic acid (TCI-LTF-09), caffeic acid (TCI-LTF-10), 4-hyderoxy-3-phenlylactic acid methyl ester (TCI-LTF-11), calceolarioside B (TCI-LTF-12), and 4-hydroxyphenolic acid (TCI-LTF-14). Herein, each of the 9 compounds was first formulated into 100 mM of stock sample with the DMSO solvent, and then added into the cell culture medium to give a final concentration of 100 μM in the cell culture medium. Each group was repeated for three times.
The cell membranes of the NCI-H716 cells treated in each group were broken with a cell lysis buffer to form a cell solution. Next, RNA of the 10 groups of cell solutions was extracted separately by using an RNA extraction reagent kit (purchased from Geneaid, Taiwan, Lot No. FC24015-G). Then, 1000 ng of the extracted RNA in each group was used as a template, and the extracted RNA was reverse transcribed into corresponding cDNA by the SuperScript® III reverse transcriptase (purchased from Invitrogene, USA, number 18080-051). Subsequently, the quantitative real-time reverse transcription polymerase chain reaction was carried out on the 10 groups of cDNA with the primers (SEQ ID NO: 15 to SEQ ID NO: 16) in Table 4 by using the ABI StepOnePlus™ Real-Time PCR system (Thermo Fisher Scientific, USA) and the KAPA SYBR FAST (purchased from Sigma, USA, number 38220000000) to observe the expression level of the PPY gene in the NCI-H716 cells in the 10 groups. The instrument setting conditions for the quantitative real-time reverse transcription polymerase chain reaction were 95° C. for 20 s, 95° C. for 3 s, 60° C. for 30 s, a total of 40 cycles, and gene quantification was carried out by the 2^−ΔCt method (using the m-ACTB gene as an internal reference gene). Herein, the quantitative real-time reverse transcription polymerase chain reaction with cDNA can indirectly quantify the expression level of the PYY protein encoded by the PPY gene. […]

For test [1], the system named is OP9 cells differentiated into fat cells. The test is described as follows: Inhibition of lipid droplet accumulation in fat cells differentiated from OP9 cells (glycerol cell-based assay), isolated compounds. More on the design: species or system mouse. The note with it: final concentration 100 μM, 7 days, blank group = 100%. The text has this: Herein, the content of glycerol in fat cells is used as a quantitative indicator to observe whether there is lipolysis.
A cell culture medium used is the α-minimum essential medium (α-MEM, Gibco, number 12000-022) containing 20% of fetal bovine serum (FBS. Gibco, number 10438-026) and 1% of antibiotic-antimycotic (Gibco, number 15240-062).
First, 8×10^4 OP9 cells (purchased from the American Type Culture Collection, ATCC®, number ATCC CRL-2749) were inoculated into a 24-well culture plate containing 500 μL of cell culture medium per well, and cultured at 37° C. for 7 days. During the 7-day cell culture, the cell culture medium was changed every 3 days. After the 7 days of culture, the formation of lipid droplets in the OP9 cells was observed by using a microscope (ZEISS; magnification 400×) to confirm that the OP9 cells were fully differentiated into fat cells for subsequent experiments.
Then, the differentiated fat cells were divided into a blank group and 5 experimental groups. The cell culture medium in each group was replaced with 500 μL of experimental medium per well, and then cultured at 37° C. for 7 days. During the 7-day culture, the experimental medium was replaced with a fresh 500 μL one every 3 days. The experimental culture medium in the blank group was just a cell culture medium (without other compounds), while the experimental culture medium in each of the 5 experimental group was a cell culture medium containing […] of corresponding compound identified in Example 7, and the 5 compounds were: syringin (TCI-LTF-01), 1,5-di-o-caffroylquinic acid (TCI-LTF-02), quercetin-3-glucuronide (TCI-LTF-03), gallic acid (TCI-LTF-06), and chlorogenic acid (TCI-LTF-08). […]
The content of glycerol was determined by using a glycerol cell-based assay kit (purchased from Cayman, USA, product number 10011725) according to the following steps. The experimental culture medium (that is, the experimental culture medium in which fat cells had been cultured, without the fat cells) in each group was collected, 25 μL of the experimental culture medium was transferred into a new 96-well culture plate, 100 μL of reconstituted free glycerol assay reagent was added into each well to react at room temperature for 15 min, and the absorbance OD540 nm of each group was read from the 96-well culture plate by an ELISA reader, to quantify the content of glycerol released into the experimental culture medium through lipolysis, as shown in FIG. 31. […] The obtained results were analyzed by student t-test using Excel software to determine whether there is a statistically significant difference between two sample groups. […]

Setting [2] is: NCI-H716 cells, final concentration 100 μM, 12 h, blank group = 1.0.

Take `COc1cc(/C=C/CO)cc(OC)c1O[C@@H]1O[C@H](CO)[C@@H](O)[C@H](O)[C@H]1O` [TCI-LTF-01, Syringin]: the fold induction at 100 µM in the test on PYY gene (NCI-H716, 12 h) amounted to 6.2. In test [1], the lipid droplet content was determined as 64.8%.

On to `O=C(/C=C/c1ccc(O)c(O)c1)O[C@@H]1C[C@](OC(=O)/C=C/c2ccc(O)c(O)c2)(C(=O)O)C[C@@H](O)[C@H]1O` [TCI-LTF-02, 1,5-Di-O-caffroylquinic acid], for which, in the test on PYY gene (setting [2]), the fold induction at 100 µM was determined as 2.3. In test [1], this molecule came in with a lipid droplet content of 75.2%.

With `O=c1cc(-c2ccc(O)c(O)c2)oc2cc(O)cc(O)c12` [TCI-LTF-04, Luteolin], the fold induction at 100 µM in the test with PYY gene (setting [2]) worked out at 3.6.

As for `O=C(O)c1cc(O)c(O)c(O)c1` [TCI-LTF-06, Gallic acid], in test [1], the lipid droplet content is recorded as 72.4%.

Regarding `O=C(/C=C/c1ccc(O)c(O)c1)O[C@@H]1C[C@](O)(C(=O)O)C[C@@H](O)[C@H]1O` [TCI-LTF-08, Chlorogenic acid], the fold induction at 100 µM in the test on PYY gene (setting [2]) turned out to be 5.3. In addition, the lipid droplet content in test [1] was 69.3%.

For the molecule `O=C(O)CCc1ccc(O)c(O)c1` [TCI-LTF-09, Dihydrocaffeic acid], the fold induction at 100 µM in the test with PYY gene (setting [2]) was determined as 4.9.

Regarding `O=C(O)/C=C/c1ccc(O)c(O)c1` [TCI-LTF-10, Caffeic acid], in the test with PYY gene (setting [2]), the fold induction at 100 µM was 3.5.

For the molecule `COC(=O)C(O)Cc1ccc(O)cc1` (stereo not shown) [TCI-LTF-11, 4-Hyderoxy-3-phenlylactic acid methyl ester], the fold induction at 100 µM with PYY gene (setting [2]) worked out at 4.5.

With `O=C(/C=C/c1ccc(O)c(O)c1)OC[C@H]1O[C@@H](OCCc2ccc(O)c(O)c2)[C@H](O)[C@@H](O)[C@@H]1O` [TCI-LTF-12, Calceolarioside B], the fold induction at 100 µM with PYY gene (setting [2]) stood at 5.6.

In the case of `O=C(O)c1ccc(O)cc1` [TCI-LTF-14, 4-Hydroxyphenolic acid], the fold induction at 100 µM in the test on PYY gene (setting [2]) was 3.6.
